Measured values published in the NIST ThermoML archive (doi:10.1016/j.jct.2006.09.014).
Where “and” joins values, the source holds several entries; their conditions need not be identical. Identical values can stand only once.

Details: Liquid; for mass density: Bellows volumetry; for vapor or sublimation pressure: Closed cell (Static) method

CCCC [butane]
Details | mass density [kg/m3]
280 K, 145 kPa | 594.1
280 K, 168.4 kPa | 594.15
280 K, 191.6 kPa | 594.23
280 K, 215 kPa | 594.24
280 K, 238.3 kPa | 594.32
280 K, 261.7 kPa | 594.34
280 K, 285 kPa | 594.4
300 K, 271.4 kPa | 571.6
300 K, 294.8 kPa | 571.61
300 K, 318.1 kPa | 571.67
300 K, 341.4 kPa | 571.69
300 K, 364.8 kPa | 571.72
300 K, 388.1 kPa | 571.76
300 K, 411.5 kPa | 571.8
320 K, 469.7 kPa | 547.03
320 K, 493 kPa | 547.12
320 K, 516.3 kPa | 547.15
320 K, 539.6 kPa | 547.22
320 K, 563 kPa | 547.25
320 K, 586.3 kPa | 547.25
320 K, 609.6 kPa | 547.3
340 K, 763.1 kPa | 520.53
340 K, 786.4 kPa | 520.62
340 K, 809.7 kPa | 520.68
340 K, 833 kPa | 520.72
340 K, 856.3 kPa | 520.82
340 K, 879.7 kPa | 520.9
340 K, 903 kPa | 520.96
360 K, 1176.4 kPa | 490.56
360 K, 1199.7 kPa | 490.68
360 K, 1223 kPa | 490.79
360 K, 1246.3 kPa | 490.91
360 K, 1269.6 kPa | 490.99
360 K, 1292.9 kPa | 491.01
360 K, 1316.1 kPa | 491.18
380 K, 1759.6 kPa | 454.68
380 K, 1782.8 kPa | 454.9
380 K, 1806.1 kPa | 455.09
380 K, 1829.3 kPa | 455.25
380 K, 1852.5 kPa | 455.46
380 K, 1875.8 kPa | 455.6
380 K, 1899 kPa | 455.78
424 K, 3720.3 kPa | 289.99
424 K, 3720.4 kPa | 289.82
424 K, 3728.4 kPa | 294.73
424 K, 3737.3 kPa | 298.52

Details | mass density [kg/m3] | vapor or sublimation pressure
280 K | 594.08 | 133 kPa
300 K | 571.57 | 257.5 kPa
320 K | 547.03 | 456.2 kPa
340 K | 520.5 | 752 kPa
360 K | 490.55 | 1170.2 kPa
370 K | – | 1434.9 kPa
380 K | 454.55 | 1739.9 kPa and 1740.4 kPa
390 K | – | 2092.1 kPa
400 K | – | 2495.2 kPa and 2494.6 kPa
410 K | – | 2955 kPa
420 K | – | 3482.5 kPa
422 K | – | 3597.5 kPa
424 K | 288.22 | 3716.9 kPa
